{"source": "paper PMC8600920", "about": "(Antiviral Research, 2021)", "key": {"HCoV-OC43": {"system": "HCoV-OC43", "assay": "HCoV-OC43 cytopathic effects", "format": "cell-based", "conditions": "Betacoronavirus 1, OC43, HCT-8, 120 h, read-out: Anti-HCoV-OC43 (EC50/μM)"}, "HCoV-NL63": {"system": "HCoV-NL63", "assay": "HCoV-NL63 cytopathic effects", "format": "cell-based", "conditions": "Human coronavirus NL63, LLC-MK2, 120 h, read-out: Anti-HCoV-NL63 (EC50/μM)"}, "in vitro": {"assay": "in vitro", "conditions": "human"}}, "data": [{"smiles": "CCC(CC)COC(=O)[C@H](C)N[P@](=O)(OC[C@H]1O[C@@](C#N)(c2ccc3c(N)ncnn23)[C@H](O)[C@@H]1O)Oc1ccccc1", "note": "[Remdesivir]", "values": [{"measurement": "EC50", "setting": "HCoV-OC43", "result": 0.82, "unit": "µM"}, {"measurement": "EC50", "setting": "HCoV-NL63", "result": 2.89, "unit": "µM"}, {"measurement": "CC50", "setting": "in vitro", "result": "> 100000", "unit": "nM"}]}]}
